Reference: paper PMC5514931, “Repositioning chlorpromazine for treating chemoresistant glioma through the inhibition of cytochrome c oxidase bearing the COX4-1 regulatory subunit” (Oncotarget, 2017)

How the values were obtained:
[1] = target: T1, cytochrome c oxidase (CcO, complex IV), purified from bovine heart; COX4-1 the most abundant COX4 isoform (Bos taurus, UniProt P00396+P00423); experiment: inhibition of purified CcO activity, dose-response; assay type: biochemical
T1 construct: gene COX4I1; purified CcO from bovine heart (Sigma-Aldrich C5499), whole multi-subunit complex; with COX1 and the other CcO subunits

[2] = target: T2, cytochrome c oxidase (CcO, complex IV) bearing the COX4-1 regulatory subunit (Homo sapiens, UniProt P00395+P13073); experiment: CcO activity and Michaelis-Menten kinetics in mitochondrial extracts; assay type: biochemical
T2 construct: gene COX4I1; CcO in mitochondrial extracts of UTMZ, U251-TgCOX4-1 (FLAG-tagged COX4-1) and GSC (J × 12, J × 39) cells; with COX1 and the other CcO subunits
T2 sequence (P00414 whole entry): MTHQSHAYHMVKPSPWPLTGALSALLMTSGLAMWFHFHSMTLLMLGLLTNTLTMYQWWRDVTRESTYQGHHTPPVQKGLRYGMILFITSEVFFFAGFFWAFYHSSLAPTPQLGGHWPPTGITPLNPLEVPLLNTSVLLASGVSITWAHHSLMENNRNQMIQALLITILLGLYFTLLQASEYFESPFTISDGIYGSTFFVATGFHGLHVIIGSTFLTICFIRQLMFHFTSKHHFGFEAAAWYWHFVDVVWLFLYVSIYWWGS
T2 sequence (P00403 whole entry, further chain): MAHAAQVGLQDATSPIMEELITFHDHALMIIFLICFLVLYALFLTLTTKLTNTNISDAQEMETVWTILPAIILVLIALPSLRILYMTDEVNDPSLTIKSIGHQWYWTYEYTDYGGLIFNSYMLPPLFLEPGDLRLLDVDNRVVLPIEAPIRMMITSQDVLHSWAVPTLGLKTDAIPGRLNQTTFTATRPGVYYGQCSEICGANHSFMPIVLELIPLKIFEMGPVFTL
T2 sequence (P13073 23-169): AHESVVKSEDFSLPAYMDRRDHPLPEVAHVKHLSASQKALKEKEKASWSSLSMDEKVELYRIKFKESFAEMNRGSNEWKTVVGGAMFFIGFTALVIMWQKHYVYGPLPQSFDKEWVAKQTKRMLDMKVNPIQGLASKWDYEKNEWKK

CN(C)CCCN1c2ccccc2Sc2ccc(Cl)cc21 [CPZ, Chlorpromazine]
IC50 [1]: 25.8 ± 3.75 µM
IC50 [2]: ~2 µM
